# Experimental data as given in patent publication US20120074014A1, “PRODUCT TYPICALLY BASED ON SALT OF PEROXYMONOSULFURIC ACID AND SUITABLE FOR MEDICINAL USAGE, AND ASSOCIATED PRODUCT FABRICATION” (LuTran Industries, Inc., priority 2010, published 2012).
# Read-outs that look alike come from different tables or passages of the source.
# Tests used:
# [1] = tested on: dandruff; test: Example K: case treatment of dandruff, scalp scrubbing; type: in vivo, human; settings: earlier treatment tried by the patient; (some of) these decreased the amount of dandruff; patient report
# Text: Given below are examples of using the medicinal drug of type I/II for treating allergic rhinitis, osteoarthritis, gouty arthritis, bronchitis, hemorrhoids, urticaria, toothache, tinea pedis, acute viral nasopharyngitis, herpes simplex, dandruff, itching, bromhidrosis, and vaginitis. […] A formulation approximating this formulation is commercially available in the product Virkon. This formulation of the drug of type I/II is referred to below as the “Medicine”.
# The Medicine for each person infected with allergic rhinitis, osteoarthritis, gouty arthritis, bronchitis, hemorrhoids, urticaria, toothache, tinea pedis, acute viral nasopharyngitis, herpes simplex, dandruff, itching, bromhidrosis, and vaginitis is provided for topical, intranasal, oral, or/and injection administration 1-12 times per day, preferably 1-8 times per day, more preferably 1-6 times per day, typically 1-4 times per day, in liquid form at a dosage of 0.00001-5%, preferably 0.001-3%, more preferably 0.1-2%, typically 0.5-1%, for a time of contact of 1 minute-12 hours, preferably 1 minute-6 hours, more preferably 1 minute-2 hours, typically 1-30 minutes.
# The Medicine was provided to […] as a 1% solution for topical administration by scrubbing the Medicine into their scalp and hair for 5 minutes and then washing their scalp and hair. The […] reported that they administered the Medicine to themself in the foregoing manner 4 times a week for 2 weeks.
# [2] = cited from earlier work
# [3] = tested on: simian vacuolating virus 40; settings: Sporkenbach, U.S. Pat. No. 4,404,191; cited from earlier work
# [4] = tested on: coxsackie virus; settings: Sporkenbach, U.S. Pat. No. 4,404,191; cited from earlier work
# [5] = tested on: adenovirus; settings: Sporkenbach, U.S. Pat. No. 4,404,191; cited from earlier work
# [6] = tested on: poliovirus; settings: Sporkenbach, U.S. Pat. No. 4,404,191; cited from earlier work
# [7] = tested on: osteoarthritis; test: Example B: case treatment of osteoarthritis, complete-body immersion; type: in vivo, human; settings: earlier treatment tried by the patient; patient report
# Text: (§1) Given below are examples of using the medicinal drug of type I/II for treating allergic rhinitis, osteoarthritis, gouty arthritis, bronchitis, hemorrhoids, urticaria, toothache, tinea pedis, acute viral nasopharyngitis, herpes simplex, dandruff, itching, bromhidrosis, and vaginitis. The formulation of the drug of type I/II used in these examples was the preferred formulation, mentioned above, in which the drug was formed with potassium hydrogen peroxymonosulfate as the active oxygen-releasing material, sodium chloride as the inorganic halide, sodium hexametaphosphate as the alkali metal phosphate, sulfamic acid, malic acid as the non-reducing organic acid, and sodium dodecylbenzene sulfonate as the surfactant at approximately the typical mass percentages mentioned above. A formulation approximating this formulation is commercially available in the product Virkon. This formulation of the drug of type I/II is referred to below as the “Medicine”. […]
# [8] = tested on: vaginitis; test: Example N: case treatment of vaginitis, vaginal immersion; type: in vivo, human; settings: earlier treatment tried by the patient; patient report
# Text: as §1
compound,measurement,setting,value
zinc pyrithione,dandruff after earlier treatments,[1],still visible
potassium monopersulfate triple salt,loss of active oxygen content per month,"[2]; anhydrous solid, reported in Tufano",roughly 1%
same,loss of active oxygen content per month,"[2]; solutions (solvent presumably high-purity water), Tufano and Durante",3-5%
O=S(=O)([O-])OO.[K+] [potassium hydrogen peroxymonosulfate],inactivation of simian vacuolating virus 40,[3],inactivated
same,inactivation of coxsackie virus,[4],inactivated
same,inactivation of adenovirus,[5],inactivated
same,inactivation of poliovirus,[6],inactivated
S=[Se]=S [selenium sulfide],dandruff after earlier treatments,[1],still visible
N[C@H]1C(O)O[C@H](CO)[C@@H](O)[C@@H]1O (some centres unmarked) [glucosamine],relief of osteoarthritis by earlier treatments,[7],without effective relief
CC(=O)N1CCN(c2ccc(OCC3COC(Cn4ccnc4)(c4ccc(Cl)cc4Cl)O3)cc2)CC1 (centres unmarked) [ketoconazole],dandruff after earlier treatments,[1],still visible
C[C@]12CCC(=O)C=C1CC[C@@H]1[C@@H]2[C@@H](O)C[C@@]2(C)[C@H]1CC[C@]2(O)C(=O)CO [hydrocortisone],success of earlier treatments for vaginitis,[8],without significant success
